Test results from patent US20210330611A1, “THERAPY FOR NEUROLOGICAL DISEASES/DISORDERS” (priority 2020, published 2021).
Where a name gives a salt, the structure may show the parent alone. Read-outs that look alike come from different tables or passages of the source.

Columns and labels:
primary rat microglia [1] = test system: primary rat microglia;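 for Fibrin % cell toxicity: share of dead cells sized under 150 µm2 at 10 µM in fibrin-stimulated microglia HTS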
[2] = test system: fibrin- and LPS-induced microglia activation; test: cells; type: cell-based, rat
[3] = test system: LPS-induced microglia activation; test: Image-based assay of LPS-induced microglia activation (HTS and dose response); type: cell-based, rat
[4] = test system: fibrin-induced microglia activation; test: Image-based assay of fibrin-induced microglia activation (HTS and dose response); type: cell-based, rat; conditions: for inhibition at 10 µM: Rattus norvegicus, Microglia, read-out: Fibrin % inhibition
primary rat microglia [5] = test system: primary rat microglia; remark: listed apart in the source;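 for Fibrin % cell toxicity: share of dead cells sized under 150 µm2 at 10 µM in fibrin-stimulated microglia HTS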
[6] = quadrant by fibrin and LPS inhibition, HTS at 10 μM
[7] = Rattus norvegicus, Microglia, primary microglia HTS, LPS stimulation, compounds at 10 μM; read-out: LPS % inhibition
[8] = primary microglia HTS, fibrin stimulation, compounds at 10 μM
[9] = Rattus norvegicus, Microglia, 48 h, read-out: LPS % inhibition
[10] = Rattus norvegicus, Microglia, read-out: LPS % inhibition
[11] = classification by fibrin and LPS inhibition in HTS
[12] = Rattus norvegicus, Microglia, 48 h; read-out: LPS % inhibition
[13] = primary microglia HTS, fibrin stimulation, cell size >800 μm2 as marker of activation
[14] = classification by fibrin and LPS inhibition, HTS at 10 μM
[15] = primary microglia HTS, LPS stimulation, compounds at 10 μM
[16] = quadrant by fibrin and LPS inhibition in HTS of 1907 compounds
[17] = Rattus norvegicus, Microglia, 48 h, primary microglia HTS, LPS stimulation, activation = cell size >800 μm2; read-out: LPS % inhibition
[18] = primary microglia HTS, fibrin stimulation, activation = cell size >800 μm2
[19] = primary microglia HTS, fibrin stimulation, increased cell size (>800 μm^2) as marker of activation
[20] = primary microglia HTS, LPS stimulation; increased cell size (>800 μm^2) as marker of activation
[21] = primary HTS, 10 μM, fibrin-stimulated primary microglia

Row | Compound | Fibrin % cell toxicity (primary rat microglia [1]; rat) [%] | LPS % cell toxicity (primary rat microglia [5]; rat) [%] | Quadrant (FIG. 5b) [2] | inhibition at 10 µM [4] [%] | other results
1 | NC(CO)C(=O)NNCc1ccc(O)c(O)c1O (stereo not shown) [Benserazide] | 0 | 0 |  |  | Quadrant (FIG. 5b) [2, 6]: Q4; inhibition at 10 µM [3, 7]: 8%; inhibition at 10 µM [4, 8]: -16%
2 | COc1cc2c(c(OC)c1OC)-c1ccc(OC)c(=O)cc1[C@@H](NC(C)=O)CC2 [Colchicine, reference compound] | 12 | 10 | Q2 | 114 | Activity [2]: fib/LPS; inhibition at 10 µM [3, 9]: 113%
3 | CN1[C@@H]2CC[C@H]1C[C@@H](OC(c1ccccc1)c1ccccc1)C2 [Benztropine] | 1 | 0 | Q4 | -7 | inhibition at 10 µM [3, 10]: 30%
4 | CC1CCC(NC(=O)N(CCCl)N=O)CC1 (stereo not shown) [Semustine] | 1 | 0 |  |  | Quadrant (FIG. 5b) [2, 11]: Q4; inhibition at 10 µM [3, 12]: 18%; inhibition at 10 µM [4, 13]: -7%
5 | CC(O)C(=O)O (stereo not shown) [Lactic Acid] | 1 | 1 | Q4 | 0 | inhibition at 10 µM [3, 9]: 14%
6 | C[C@]12C=CC(=O)N[C@@H]1CC[C@@H]1[C@@H]2CC[C@]2(C)[C@@H](C(=O)Nc3cc(C(F)(F)F)ccc3C(F)(F)F)CC[C@@H]12 [Dutasteride] | 1 | 0 | Q4 | 7 | inhibition at 10 µM [3, 10]: 22%
7 | CC(=O)C1C(=O)C=C(C)OC1=O (stereo not shown) [Dehydroacetic Acid] | 0 | 0 |  |  | Quadrant (FIG. 5b) [2, 14]: Q4; inhibition at 10 µM [3, 7]: 2%; inhibition at 10 µM [4, 8]: -36%
8 | NCCS [Cysteamine] | 0 | 0 | Q4 | 9 | inhibition at 10 µM [3, 10]: 12%
9 | O=c1ccc2ccccc2o1 [2H-1-BENZOPYRAN-2-ONE] |  |  | Q4 |  | Fibrin % cell toxicity (primary rat microglia [1]): 0%; LPS % inhibition ([3]; 10 µM): 13%; Fibrin % inhibition ([4]; 10 µM): −35%; LPS % cell toxicity (primary rat microglia [5]): 0%
10 | CC[C@@]1(O)C(=O)OCc2c1cc1n(c2=O)Cc2cc3c(CN(C)C)c(O)ccc3nc2-1 [Topotecan, Topotecan Hydrochloride] |  |  |  |  | Fibrin % cell toxicity (primary rat microglia [1]): 63%; Quadrant (FIG. 5b) [2, 6]: Q2; LPS % inhibition [3, 15]: 112%; Fibrin % inhibition [4, 8]: 112%; LPS % cell toxicity (primary rat microglia [5]): 40%
11 | CCOC(=O)c1ccc(N)cc1 [Benzocaine] | 1 | 0 |  |  | Quadrant (FIG. 5b) [2, 6]: Q4; inhibition at 10 µM [3, 7]: 7%; inhibition at 10 µM [4, 8]: -24%
12 | NC(=O)c1cccnc1 [Nicotinamide] | 1 | 0 | Q4 | -8 | inhibition at 10 µM [3, 9]: 16%
13 | O=NN(CCCl)C(=O)NC1CCCCC1 [Lomustine] | 1 | 1 |  |  | Quadrant (FIG. 5b) [2, 16]: Q4; inhibition at 10 µM [3, 17]: 19%; inhibition at 10 µM [4, 18]: 0%
14 | Oc1ccc2ccccc2c1 [Beta-naphthol] | 0 | 0 | Q4 | -17 | inhibition at 10 µM [3, 10]: 15%
15 | Fc1ccc(C(c2ccc(F)cc2)N2CCN(C/C=C/c3ccccc3)CC2)cc1 [Flunarizine] | 1 | 1 | Q4 | -10 | inhibition at 10 µM [3, 9]: 12%
16 | CN(C)CCCN1c2ccccc2CCc2ccc(Cl)cc21 [Clomipramine] | 1 | 1 | Q4 | -1 | inhibition at 10 µM [3, 10]: 32%
17 | Cc1[nH]c(=O)c(C#N)cc1-c1ccncc1 [Milrinone] | 0 | 0 |  |  | Quadrant (FIG. 5b) [2, 16]: Q4; inhibition at 10 µM ([3]; Rattus norvegicus, Microglia, 48 h, primary microglia HTS, LPS stimulation; increased cell size (>800 μm^2) as marker of activation; read-out: LPS % inhibition): 23%; inhibition at 10 µM [4, 19]: 4%
18 | O=C(NCC(O)CO)c1c(I)c(C(=O)NCC(O)CO)c(I)c(N(CCO)C(=O)CO)c1I (stereo not shown) [Ioversol] | 1 | 1 | Q4 | -1 | inhibition at 10 µM [3, 9]: 18%
19 | COc1ccc(CN(CCN(C)C)c2ncccn2)cc1 [Thonzylamine Hydrochloride] | 0 | 0 |  |  | Quadrant (FIG. 5b) ([2]; HTS of 1907 compounds, quadrant by fibrin and LPS inhibition): Q4; inhibition at 10 µM ([3]; Rattus norvegicus, Microglia, primary microglia HTS, 10 μM, LPS-stimulated, cell size >800 μm^2 as marker of activation; read-out: LPS % inhibition): 6%; inhibition at 10 µM ([4]; primary microglia HTS, 10 μM, fibrin-stimulated, cell size >800 μm^2 as marker of activation): -21%
20 | Acriflavinium Hydrochloride |  |  |  |  | Fibrin % cell toxicity (primary rat microglia [1]): 57%; Quadrant (FIG. 5b) [2, 16]: Q2; LPS % inhibition [3, 20]: 129%; Fibrin % inhibition [4, 19]: 110%; LPS % cell toxicity (primary rat microglia [5]): 63%
21 | O=C(O)/C=C/C(=O)O [Fumaric Acid] | 1 | 0 | Q4 | 19 | inhibition at 10 µM [3, 9]: 17%
22 | COc1cc(NC(C)CCCN)c2ncccc2c1 (stereo not shown) [Primaquine] | 0 | 0 | Q4 | -58 | inhibition at 10 µM [3, 9]: 7%
23 | COc1ccc2c(c1)c(CC(=O)O)c(C)n2C(=O)c1ccc(Cl)cc1 [Indomethacin] | 0 | 0 |  |  | Quadrant (FIG. 5b) [2, 16]: Q4; inhibition at 10 µM [3, 17]: 13%; inhibition at 10 µM [4, 18]: -56%
24 | C[C@H](CCC(=O)O)[C@H]1CC[C@H]2[C@@H]3[C@H](O)C[C@@H]4C[C@H](O)CC[C@]4(C)[C@H]3C[C@H](O)[C@]12C [Cholic Acid] | 0 | 0 | Q4 | -31 | inhibition at 10 µM [3, 10]: -5%
25 | CN(C)CCC(c1ccccc1)c1ccccn1 (stereo not shown) [Pheniramine] | 1 | 0 |  |  | Quadrant (FIG. 5b) [2, 11]: Q4; inhibition at 10 µM [3, 12]: 1%; inhibition at 10 µM [4, 13]: -9%
26 | CC12CCC(CC1=O)C2(C)C [D-camphor] |  |  |  |  | Fibrin % cell toxicity (primary rat microglia [1]): 0%; Quadrant (FIG. 5b) [2, 14]: Q4; LPS % inhibition [3, 15]: 6%; Fibrin % inhibition [4, 8]: −32%; LPS % cell toxicity (primary rat microglia [5]): 0%
27 | O=C1CCc2cc(OCCCCc3nnnn3C3CCCCC3)ccc2N1 [Cilostazol] | 1 | 1 |  |  | Quadrant (FIG. 5b) ([2]; primary HTS, 10 μM): Q4; inhibition at 10 µM ([3]; Rattus norvegicus, Microglia, primary HTS, 10 μM, LPS-stimulated primary microglia; read-out: LPS % inhibition): 17%; inhibition at 10 µM [4, 21]: 5%
28 | CCCCc1nc(Cl)c(CO)n1Cc1ccc(-c2ccccc2-c2nnn[nH]2)cc1 [Losartan, Losartan Potassium] |  |  |  |  | Fibrin % cell toxicity (primary rat microglia [1]): 1%; Quadrant (FIG. 5b) [2, 16]: Q4; LPS % inhibition [3, 20]: 19%; Fibrin % inhibition [4, 19]: −3%; LPS % cell toxicity (primary rat microglia [5]): 1%
29 | CO/N=C(\C(=O)N[C@@H]1C(=O)N2C(C(=O)O)=C(COC(N)=O)CS[C@H]12)c1ccco1 [Cefuroxime] | 1 | 0 |  |  | Quadrant (FIG. 5b) ([2]; primary HTS, 10 μM): Q4; LPS % inhibition ([3]; primary HTS, 10 μM, LPS-stimulated primary microglia): 2%; Fibrin % inhibition [4, 21]: 16%
30 | C#Cc1cccc(Nc2ncnc3cc(OCCOC)c(OCCOC)cc23)c1 [Erlotinib] | 1 | 0 |  |  | Quadrant (FIG. 5b) [2, 14]: Q4; inhibition at 10 µM [3, 7]: -8%; inhibition at 10 µM [4, 8]: -52%
